Experimental data as given in patent publication US20250073209A1, “COVALENT TARGETING OF RhoA FOR CANCER THERAPY” (The University of Hong Kong, priority 2023, published 2025).

Tests used:
RhoA WT = target: T1, RhoA WT (Homo sapiens, UniProt P61586); assay: RhoA-GTP rhotekin pull-down in HT29 cells expressing RhoA WT; format: cell-based; settings: 24 h
T1 construct: endogenous in cells; host or cells: HT29
Experimental: RhoA Pull-Down Activation Assay Biochem Kit (#BK036) was purchased from Cytoskeleton. According to the manufacturer's protocol, total cell lysate (0.5 mg/mL; 300 μL) was added to 7.5 μL of Rhotekin-Rho Binding Domain beads in 0.6 mL tubes. The solution mixture was incubated at 4° C. on an end-to-end rotator for 1 hour. Beads were washed with 500 μL of washing buffer once, then centrifuged at 5000g for 3 min and the supernatant was discarded. RhoA-GTP was then eluted in 2× laemmli buffer and resolved in 10% SDS-PAGE.
The effects of CL16 in HT29 cells expressing RhoA WT protein and HT29 cells with RhoA C16 Å knock-in by CRISPR-Cas9 were investigated, respectively, to validate the molecular mechanism of RhoA inhibition and anti-cancer properties from CL16. […] HT29 cells expressing RhoA WT or C16 Å protein were incubated with solvent vehicle, CL16 or Rhosin in complete medium for 24 h. The cells were then washed, lysed, subjected to rhotekin pull-down and immunoblotted. […] Wound healing assay on HT29 cells expressing RhoA WT or C16 Å protein were incubated with solvent vehicle, CL16 or Rhosin in complete medium for 48 h (FIGS. 19A and 19B).

SW620 spheroid = assay: Spheroid formation assay, SW620; format: cell-based, human
Experimental: (§1) FIGS. 5A-5B are graphs showing the anticancer effects of CL16 in HT29 (FIG. 5A) and SW620 (FIG. 5B) spheroids. HT29 spheroid or SW620 spheroid were treated with CL16 at the indicated concentrations for 10 days. The spheroids were then imaged by microscope using 10× objective and the size was determined by ImageJ.
(§2) 5,000 cells of HT29 and SW620 cells were inoculated in serum-free DMEM/F12 medium with 20 ng/mL […] growth factor (EGF) in 96-well round-bottom low-affinity plate (Nunc). Medium was supplemented with CL16 or Rhosin when spheroid has formed an opaque core. Morphology was recorded under a light microscope with 10× objective.
(§3) To further investigate the anticancer effects of CL16, HT29 and SW620 cells were inoculated as spheroids in low-affinity plate with 20 ng/mL EGF, and incubated with different concentrations of CL16 or Rhosin.

HCT116 cells = assay: F-actin staining (Alexa Fluor 488-Phalloidin), serum re-stimulation; format: cell-based, human; settings: HCT116, 24 h, 10% FBS re-stimulation 10 min
Experimental: To further validate the inhibitory effects of CL16 on RhoA, HCT116 and HT29 cells were transfected with a FRET-RhoA biosensor, where cells with elevated RhoA activity would show a higher FRET/mTFP1. Specifically, HCT116 cells transfected with FRET-RhoA biosensor were treated with CL16 or solvent in serum-free medium for 24 h, washed with PBS, re-stimulated with 10% FBS for 10 min, washed, and then imaged in HBSS by confocal fluorescence microscopy. […] In addition, HCT116 cells were serum-starved and treated with CL16 or Rhosin for 24 h, followed by 10% FBS re-stimulation for 10 min. The cells were then washed and fixed by 4% paraformaldehyde, washed with PBS and stained with Alexa Fluor 488-Phalloidin in PBS (1:20, v/v) at room temperature for 15 min. The cells were washed with PBS, incubated with Hoechst (8.2 μM) in PBS for 15 min, washed and then imaged in PBS by confocal fluorescence microscopy. […] Since RhoA regulates cytoskeletal dynamics and RhoA activation can induce the formation of contractile F-actin, the reduction of F-actin fibers by CL16 treatment supports its inhibitory roles on RhoA signaling.

[1] = tested on: HT29 cells with C16 Å knock-in; assay: Wound healing assay on HT29 cells with RhoA C16A knock-in; format: cell-based, human; settings: 48 h
Experimental: For wound healing assay, HT29 cells were seeded in 90% confluency, a wound was scratched using a P-20 tip the next day. Cell debris was washed with PBS then aspirated. Then, complete DMEM medium with CL16 or Rhosin with corresponding concentration was added to the cells. Wound closure was recorded every 24 hours under light microscope with 10× objective and measurement of wound area was made by ImageJ.
HT29 cells with RhoA C16 Å knock-in were prepared by BrainVTA using the CRISPR-Cas9 technique. Briefly, HT29 cells were transfected with RhoA construct with mutated loci in CRISPR/Cas9 vector (U6-sa-sgRNA) using PEI. Cells were subsequently selected with 2 μg/mL puromycin and 800 μg/mL neomycin for 2 weeks. Monoclonal cells were then selected, propagated and subjected to Sanger sequencing to validate the homozygous C16 Å amino acid substitution ([…]) in RhoA gene.
The effects of CL16 in HT29 cells expressing RhoA WT protein and HT29 cells with RhoA C16 Å knock-in by CRISPR-Cas9 were investigated, respectively, to validate the molecular mechanism of RhoA inhibition and anti-cancer properties from CL16. […] HT29 cells expressing RhoA WT or C16 Å protein were incubated with solvent vehicle, CL16 or Rhosin in complete medium for 24 h. The cells were then washed, lysed, subjected to rhotekin pull-down and immunoblotted. […]

RhoA = RhoA (Homo sapiens, UniProt P61586); assay: Fluorescence-based assay of Dbs-mediated GTP binding onto RhoA; format: biochemical; settings: increasing concentrations of CL16
[2] = tested on: normal colon fibroblast CCD-18Co cells; assay: MTT assay on normal colon fibroblasts; format: cell-based, human; settings: 48 h, compared with CRCs
Experimental: HCT116 cells was seeded at 2,500 cells/well; HT29, LOVO and SW620 cells were seeded at 4,000 cells/well; CCD-18Co cells were seeded at 10,000/well; and SW480 cells were seeded at 12,000 cells/well in 96 well plate in triplicates. Cells were treated with a concentration gradient of CL16 for 48 hours. Then, cells were incubated with 10% 3-(4,5-Dimethylthiazol-2-yl)-2,5-diphenyltetrazolium bromide (MTT) solution ([…]) in 37° C. for 4 hours. Cells were then lyzed in 10% SDS in […] HCl. Absorbance of individual well was measured at 570 nm. IC50 values were analyzed by nonlinear best-fit regression using Prism Graphpad 9.
As discussed above, overexpression/hyperactivity of RhoA associated with poor prognosis and aggressive behaviors of CRCs (FIG. 8A). Thus, the anti-cancer and anti-metastatic properties of CL16 in CRCs were explored. First, it was confirmed that genetic knockdown of RhoA by siRNA slowed down colony formation and migration of CRCs by using staining (data not shown) and wound healing assay (FIG. 4A). MTT assay was used to determine cell viability of CRCs and normal colon fibroblast CCD-18Co cells treated with CL16 for 48 h (n=3 different biological replicates/group). A much lower expression level of RhoA in normal colon fibroblast CCD-18Co cells was also determined, as compared to CRCs, by western blotting (data not shown). […]

HT29 spheroid = assay: Spheroid formation assay, HT29; format: cell-based, human
Experimental: as §1, §2, §3

[3] = 20 ng/mL EGF, low-affinity plate

RhoA, sequence (P61586 whole entry): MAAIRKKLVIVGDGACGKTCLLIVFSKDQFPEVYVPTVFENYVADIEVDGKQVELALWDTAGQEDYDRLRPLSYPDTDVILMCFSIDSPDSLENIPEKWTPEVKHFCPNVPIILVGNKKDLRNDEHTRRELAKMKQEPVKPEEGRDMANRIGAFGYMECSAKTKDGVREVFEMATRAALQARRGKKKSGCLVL
T1 sequence (P61586 whole entry): as above

## O=C(CCl)N1N=C(c2cc3ccccc3o2)CC1c1ccco1 (stereo not drawn) [CL16]
RhoA WT
  active RhoA-GTP level: significant decrease in the active RhoA-GTP level
SW620 spheroid; [3]
  growth of SW620 spheroids: significant inhibitions in the growth
SW620 spheroid; Homo sapiens, SW-620, 240 h, 10 days, read-out: cytotoxic IC50 in SW620 spheroids
  IC50: 4.1 µM
HCT116 cells
  concentration from which reduction of F-actin fibers was observed: ≥ 5 µM
[1]
  cell migration: no inhibitory effects
RhoA
  kinetics of Dbs-mediated GTP binding onto RhoA: significant decrease in the kinetics
[2]
  toxicity in normal cells (cell viability): much less toxic
HT29 spheroid; [3]
  growth of HT29 spheroids: significant inhibitions in the growth
HT29 spheroid; Homo sapiens, HT-29, 240 h, 10 days, read-out: cytotoxic IC50 in HT29 spheroids
  IC50: 5.57 µM
